This passage reports solubility results from patent US20080182848A1, “Novel Process” (priority 2005, published 2008).

This data set is described as follows: solubility in the mobile phase (isopropanol). In kind it is physicochemical. Particulars: organic solvent or mixture; crude material; isopropanol as the mobile phase. As to the method:
Racemic zopiclone was subjected to preparative chromatography using Chiralcel® OD as the stationery phase and isopropanol as the mobile phase. Under these conditions the crude material has a good solubility in the mobile phase (>1.0 g/liter) and the typical retention time for the R-isomer is 12.3 minutes and for the S-isomer is 17.8 minutes. Some physico-chemical properties of the S-zopiclone obtained are set out in table 1.

What is called solubility is the concentration that dissolves in the medium under given conditions. Take `CN1CCN(C(=O)OC2c3nccnc3C(=O)N2c2ccc(Cl)cn2)CC1` (racemic) [Racemic zopiclone, (±) of 6-(5-chloro-2-pyridinyl)-6,7-dihydro-7-oxo-5H-pyrrolo-[3,4b]-pyrazin-5-yl-4-methylpiperazine-1-caboxylate]: the solubility was above 1000 µg/mL.
